# Reference: PMC12226733, “Evolution of iGluR ligand specificity, polyamine regulation, and ion selectivity inferred from a placozoan epsilon receptor” (Communications Biology, 2025)
# “And” between values parts separate entries of the source, which are not always exact repeats. Equal values may be shown once. Read-outs that look alike come from different tables or passages of the source.
# Assays:
# GluE1αA S642R = type: cell-based, Trichoplax adhaerens; conditions: […]; for normalized conductance (G-V, Figure 5g), Avg: Na vs Na; for I-V current, Na vs Na, Avg of recordings: Figure 5b
# GluA2 Q607S = target: T1, GluA2 Q607S (Homo sapiens, UniProt P42262, Q607S); experiment: outside-out patch clamp, block by intracellular spermine, HEK-293T/17 cells; type: biochemical;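 on Normalized conductance (Gnorm): normalized to each receptor's own maximal conductance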
# T1 construct: host or cells: HEK-293T/17
# Description: (§1) Parallel experiments were carried out in human GluA2 homotetramers bearing equivalent Q/R/N and +4 site mutations to compare the regulation of voltage-dependent polyamine block within the broader context of mammalian receptors. Experimental design remained the same, except for using 10 mM glutamate as the agonist used to evoke membrane currents (Fig. 7a, d, g, and j). […] Their properties were accordingly compared to wildtype GluA2(Q) co-expressed with TARP-γ2.
# (§2) HEK-293T/17 cells (ATCC) were maintained in MEM supplemented with GlutaMAX and 10% fetal bovine serum (FBS) at 37 °C and 5% CO2. […] Transient transfections were carried out 48 h post-plating using the calcium phosphate precipitation method. After 6–8 hours, cells were washed twice with PBS and maintained in fresh medium. Cells transfected with mammalian GluA2 cDNA (plasmid vector described above) were returned to an incubator at 37 °C for 24–48 hours and cells transfected with Epsilon GluE1αA were incubated at 28 °C for 48–72 hours. In cells co-transfected with TARP-γ2, 30 μM NBQX was included in the medium to minimize AMPAR/auxiliary-induced cytotoxicity. All constructs were co-transfected with a plasmid encoding enhanced green fluorescent protein (eGFP) to identify transfected cells. Electrophysiology responses were recorded from outside-out patches excised from transfected cells. Recording pipettes were composed of borosilicate glass (3 to 6 megaohm, King Precision Glass) coated with dental wax to reduce electrical noise. All recordings were performed using Axopatch 200B amplifier (Molecular Devices, LLC). Current records were filtered at 5 or 10 kHz and sampled at 25–50 kHz. Series resistance (3 to 12 megaohms) was compensated by 95%. Recordings were performed at a range of holding potentials from −100 mV to 100 mV to study polyamine block. Data was acquired using pClamp9 software (Molecular Devices, LLC). All experiments were performed at room temperature. All chemicals were purchased from Sigma-Aldrich, unless otherwise indicated. External solution contained (in mM): 150 NaCl, 5 HEPES, 0.1 CaCl2, 0.1 MgCl, and […], pH 7.3–7.4. […] The osmotic pressure of all solutions was adjusted to 295 to 300 mOsm with sucrose. […] Stocks were thawed on the day of the experiment and used to prepared agonist-containing external solutions. Raw data for all electrophysiology experiments are provided in Supplementary Data 3. Current-voltage (I-V) relationships were fit using Origin 7 (OriginLab) using a ninth order polynomial function to estimate the reversal potential (Vrev).
# (§3) Agonist-evoked membrane conductance (G) was calculated using the following equation: G=I/(V−Vrev)
# (§4) Conductance-voltage (G-V) relationships were fit using Origin 7 (OriginLab) with the single permeant blocker model as done previously[46]: G=Gmax/1+[Spm]/Kd Where Gmax is the maximal conductance, [Spm] is the internal Spm concentration, and Kd is the dissociation constant.
# (§5) Kd is defined as: Kd=koff+kperm/kon=sumofexitrates/bindingrate
# (§6) And redefined as: Kd=g*exp(V/h)+L*exp(V/k) Where h and k are voltage dependencies of g and L, respectively, and at 0 mV: g=koff/konandL=kperm/kon
# GluA2(Q) wt = target: T2, GluA2(Q) wt (Homo sapiens, UniProt P42262); experiment: as above; type: biochemical; conditions: for Normalized conductance (Gnorm) GluA2 wild type / Normalized current (Inorm) GluA2 wild type: single recordings and AVG;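 on Normalized current (Inorm) GluA2 wild type: current normalized to the maximum current response at −100 mV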
# T2 construct: host or cells: HEK-293T/17
# Description: as §1, §2, §3, §4, §5, §6
# [1] = GluA2 Q670S, 10 mV, single recordings and AVG
# [2] = GluA2 Q670S, 20 mV, single recordings and AVG
# [3] = GluA2 Q670S, 30 mV, single recordings and AVG
# [4] = GluA2 Q670S, 40 mV, single recordings and AVG
# [5] = GluA2 Q670S, 50 mV, single recordings and AVG
# [6] = GluA2 Q670S, 60 mV, single recordings and AVG
# [7] = GluA2 Q670S, 70 mV, single recordings and AVG
# [8] = GluA2 Q670S, 80 mV, single recordings and AVG
# [9] = GluA2 Q670S, 90 mV, single recordings and AVG
# [10] = GluA2 Q670S, 100 mV, single recordings and AVG
# [11] = GluA2 Q670S, -100 mV, single recordings and AVG
# T1 sequence (P42262 25-883 Q607S): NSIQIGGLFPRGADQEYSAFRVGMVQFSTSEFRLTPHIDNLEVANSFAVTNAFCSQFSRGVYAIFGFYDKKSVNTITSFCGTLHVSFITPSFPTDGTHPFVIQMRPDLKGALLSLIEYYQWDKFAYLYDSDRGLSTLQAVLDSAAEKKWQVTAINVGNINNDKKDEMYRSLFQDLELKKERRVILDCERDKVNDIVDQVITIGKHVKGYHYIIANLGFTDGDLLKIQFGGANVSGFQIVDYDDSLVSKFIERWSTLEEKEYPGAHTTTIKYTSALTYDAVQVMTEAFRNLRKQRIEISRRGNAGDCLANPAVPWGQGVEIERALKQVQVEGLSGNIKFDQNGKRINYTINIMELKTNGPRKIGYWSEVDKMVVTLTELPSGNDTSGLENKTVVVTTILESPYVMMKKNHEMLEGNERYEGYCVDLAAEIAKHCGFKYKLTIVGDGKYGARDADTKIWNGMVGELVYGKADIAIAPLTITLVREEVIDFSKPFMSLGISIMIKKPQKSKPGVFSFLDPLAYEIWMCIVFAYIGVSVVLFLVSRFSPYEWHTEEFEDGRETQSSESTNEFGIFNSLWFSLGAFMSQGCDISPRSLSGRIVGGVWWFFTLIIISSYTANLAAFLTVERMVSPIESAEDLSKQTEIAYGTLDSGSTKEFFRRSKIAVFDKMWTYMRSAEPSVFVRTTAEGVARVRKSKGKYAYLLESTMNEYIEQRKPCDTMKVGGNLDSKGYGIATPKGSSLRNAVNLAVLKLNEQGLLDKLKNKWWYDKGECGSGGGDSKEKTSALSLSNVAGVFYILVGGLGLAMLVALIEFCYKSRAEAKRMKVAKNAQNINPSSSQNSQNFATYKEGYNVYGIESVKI
# T2 sequence (P42262 25-883): as the sequence (P42262 25-883 Q607S) above, with S583Q counted along it
compound,measurement,setting,value
[Na+] [Na],"normalized conductance (G-V, Figure 5g), Avg",GluE1αA S642R; Vm 0.00,0.18
same,"normalized conductance (G-V, Figure 5g), Avg",GluE1αA S642R; Vm 20.00,0.18
same,"normalized conductance (G-V, Figure 5g), Avg",GluE1αA S642R; Vm 40.00,0.22
same,"normalized conductance (G-V, Figure 5g), Avg",GluE1αA S642R; Vm 60.00,0.29
same,"normalized conductance (G-V, Figure 5g), Avg",GluE1αA S642R; Vm 80.00,0.33
same,"normalized conductance (G-V, Figure 5g), Avg",GluE1αA S642R; Vm -20.00,0.24
same,"normalized conductance (G-V, Figure 5g), Avg",GluE1αA S642R; Vm -40.00,0.36
same,"normalized conductance (G-V, Figure 5g), Avg",GluE1αA S642R; Vm -60.00,0.62
same,"normalized conductance (G-V, Figure 5g), Avg",GluE1αA S642R; Vm -80.00,1.00
same,"I-V current, Na vs Na, Avg of recordings",GluE1αA S642R; Vm 0.00,0.00344
same,"I-V current, Na vs Na, Avg of recordings",GluE1αA S642R; Vm 20.00,0.06
same,"I-V current, Na vs Na, Avg of recordings",GluE1αA S642R; Vm 40.00,0.13
same,"I-V current, Na vs Na, Avg of recordings",GluE1αA S642R; Vm 60.00,0.22
same,"I-V current, Na vs Na, Avg of recordings",GluE1αA S642R; Vm 80.00,0.33
same,"I-V current, Na vs Na, Avg of recordings",GluE1αA S642R; Vm -20.00,-0.07
same,"I-V current, Na vs Na, Avg of recordings",GluE1αA S642R; Vm -40.00,-0.16
same,"I-V current, Na vs Na, Avg of recordings",GluE1αA S642R; Vm -60.00,-0.32
same,"I-V current, Na vs Na, Avg of recordings",GluE1αA S642R; Vm -80.00,-0.59
NCCCNCCCCNCCCN [spermine],Normalized current (Inorm),GluA2 Q607S,-0.0262
same,"h, voltage dependency of block onset",GluA2 Q607S; GluA2 Q607S,−14.0 ± 2.3 mV
same,"k, voltage dependency of block relief",GluA2 Q607S; GluA2 Q607S,164.4 ± 31.1 mV
same,Kd,"GluA2 Q607S; GluA2 Q607S, 30 µM internal Spm, 10 mM glutamate, read-out: Kd(0mV)",36.2 ± 6.7 µM
same,Normalized conductance (Gnorm),"GluA2 Q607S; GluA2 Q670S, 0 mV, single recording",0.58
same,Normalized conductance (Gnorm),GluA2 Q607S; [1],0.61 and 0.49 and 0.58 and 0.59 and 0.57
same,Normalized current (Inorm),GluA2 Q607S; [1],0.0362 and 0.03 and 0.04 and 0.0351 and 0.0359
same,Normalized conductance (Gnorm),GluA2 Q607S; [2],0.63 and 0.50 and 0.57 and 0.64 and 0.59
same,Normalized current (Inorm),GluA2 Q607S; [2],0.095 and 0.09 and 0.10 and 0.11
same,Normalized conductance (Gnorm),GluA2 Q607S; [3],0.65 and 0.52 and 0.57 and 0.61 and 0.59
same,Normalized current (Inorm),GluA2 Q607S; [3],0.16 and 0.15 and 0.17
same,Normalized conductance (Gnorm),GluA2 Q607S; [4],0.67 and 0.55 and 0.57 and 0.65 and 0.61
same,Normalized current (Inorm),GluA2 Q607S; [4],0.23 and 0.22 and 0.25
same,Normalized conductance (Gnorm),GluA2 Q607S; [5],0.68 and 0.55 and 0.59 and 0.63
same,Normalized current (Inorm),GluA2 Q607S; [5],0.29 and 0.28 and 0.33 and 0.30
same,Normalized conductance (Gnorm),GluA2 Q607S; [6],0.74 and 0.61 and 0.65 and 0.67
same,Normalized current (Inorm),GluA2 Q607S; [6],0.39 and 0.36 and 0.38
same,Normalized conductance (Gnorm),GluA2 Q607S; [7],0.69 and 0.61 and 0.66
same,Normalized current (Inorm),GluA2 Q607S; [7],0.43 and 0.41 and 0.48 and 0.44
same,Normalized conductance (Gnorm),GluA2 Q607S; [8],0.72 and 0.65 and 0.71 and 0.69
same,Normalized current (Inorm),GluA2 Q607S; [8],0.51 and 0.57 and 0.53
same,Normalized conductance (Gnorm),GluA2 Q607S; [9],0.70 and 0.62 and 0.71 and 0.68
same,Normalized current (Inorm),GluA2 Q607S; [9],0.56 and 0.55 and 0.64 and 0.59
same,Normalized conductance (Gnorm),GluA2 Q607S; [10],0.72 and 0.65 and 0.76 and 0.71
same,Normalized current (Inorm),GluA2 Q607S; [10],0.65 and 0.77 and 0.69
same,Normalized conductance (Gnorm),"GluA2 Q607S; GluA2 Q670S, -10 mV, single recordings and AVG",0.58 and 0.48 and 0.57 and 0.51 and 0.53
same,Normalized conductance (Gnorm),"GluA2 Q607S; GluA2 Q670S, -20 mV, single recordings and AVG",0.55 and 0.46 and 0.51 and 0.49 and 0.50
same,Normalized conductance (Gnorm),"GluA2 Q607S; GluA2 Q670S, -30 mV, single recordings and AVG",0.54 and 0.46 and 0.52 and 0.50
same,Normalized conductance (Gnorm),"GluA2 Q607S; GluA2 Q670S, -40 mV, single recordings and AVG",0.55 and 0.48 and 0.52 and 0.45 and 0.50
same,Normalized conductance (Gnorm),"GluA2 Q607S; GluA2 Q670S, -50 mV, single recordings and AVG",0.57 and 0.50 and 0.52 and 0.49
same,Normalized conductance (Gnorm),"GluA2 Q607S; GluA2 Q670S, -60 mV, single recordings and AVG",0.64 and 0.55 and 0.54 and 0.56 and 0.57
same,Normalized conductance (Gnorm),"GluA2 Q607S; GluA2 Q670S, -70 mV, single recordings and AVG",0.72 and 0.61 and 0.64
same,Normalized conductance (Gnorm),"GluA2 Q607S; GluA2 Q670S, -80 mV, single recordings and AVG",0.81 and 0.68 and 0.75 and 0.67 and 0.73
same,Normalized conductance (Gnorm),"GluA2 Q607S; GluA2 Q670S, -90 mV, single recordings and AVG",0.92 and 0.76 and 0.83 and 0.81
same,Normalized conductance (Gnorm),GluA2 Q607S; [11],0.86 and 0.95 and 0.90
same,Normalized current (Inorm),GluA2 Q607S; [11],-1.00
same,Normalized conductance (Gnorm) GluA2 wild type,GluA2(Q) wt; 10 mV,0.13 and 0.07 and 0.09 and 0.12 and 0.14 and 0.11
same,Normalized current (Inorm) GluA2 wild type,GluA2(Q) wt; 30 mV,0.0172
same,Normalized current (Inorm) GluA2 wild type,GluA2(Q) wt; 70 mV,0.19 and 0.25 and 0.20 and 0.28 and 0.32 and 0.36 and 0.27
same,Normalized conductance (Gnorm) GluA2 wild type,GluA2(Q) wt; 80 mV,0.39 and 0.55 and 0.61 and 0.72 and 0.70 and 0.59
same,Normalized current (Inorm) GluA2 wild type,GluA2(Q) wt; 80 mV,0.31 and 0.42 and 0.39 and 0.43 and 0.54 and 0.52 and 0.44
same,Normalized conductance (Gnorm) GluA2 wild type,GluA2(Q) wt; 90 mV,0.49 and 0.69 and 0.70 and 0.77 and 0.89 and 0.81 and 0.72
same,Normalized current (Inorm) GluA2 wild type,GluA2(Q) wt; 90 mV,0.44 and 0.59 and 0.56 and 0.62 and 0.76 and 0.68 and 0.61
same,Normalized conductance (Gnorm) GluA2 wild type,GluA2(Q) wt; 100 mV,0.66 and 0.80 and 0.82 and 0.89 and 0.94
same,Normalized current (Inorm) GluA2 wild type,GluA2(Q) wt; 100 mV,0.66 and 0.77 and 0.74 and 0.80 and 0.89
same,Normalized current (Inorm) GluA2 wild type,GluA2(Q) wt; -10 mV,-0.0326
same,Normalized current (Inorm) GluA2 wild type,GluA2(Q) wt; -20 mV,-0.0532
same,Normalized conductance (Gnorm) GluA2 wild type,GluA2(Q) wt; -40 mV,0.53 and 0.50 and 0.49 and 0.66 and 0.63 and 0.73 and 0.59
same,Normalized conductance (Gnorm) GluA2 wild type,GluA2(Q) wt; -50 mV,0.65 and 0.63 and 0.62 and 0.80 and 0.70 and 0.82
same,Normalized conductance (Gnorm) GluA2 wild type,GluA2(Q) wt; -60 mV,0.75 and 0.73 and 0.72 and 0.89 and 0.80 and 0.79
same,Normalized conductance (Gnorm) GluA2 wild type,GluA2(Q) wt; -70 mV,0.83 and 0.76 and 0.82 and 0.93 and 0.85 and 0.92
same,Normalized conductance (Gnorm) GluA2 wild type,GluA2(Q) wt; -80 mV,0.88 and 0.91 and 0.95 and 0.89
same,Normalized conductance (Gnorm) GluA2 wild type,GluA2(Q) wt; -90 mV,0.90 and 0.93 and 0.98 and 0.99 and 0.95
same,Normalized conductance (Gnorm) GluA2 wild type,GluA2(Q) wt; -100 mV,0.96 and 0.99 and 0.97 and 1.03 and 1.00
same,Normalized current (Inorm) GluA2 wild type,GluA2(Q) wt; -100 mV,-1.00
same,"h, voltage dependency of block onset",GluA2(Q) wt; GluA2(Q) wt,−18.5 ± 0.7 mV
same,"k, voltage dependency of block relief",GluA2(Q) wt; GluA2(Q) wt,14.3 ± 0.6 mV
same,Kd,"GluA2(Q) wt; GluA2(Q) wt, 30 µM internal Spm, 10 mM glutamate, read-out: Kd(0mV)",5.4 ± 2.6 µM
same,k,"GluA2(Q) wt; fit of Gnorm vs voltage, GluA2 wild type, single recordings",16.05 and 14.65 and 13.61 and 14.56 and 11.91 and 14.81
